# Laboratory results as given in patent USRE43000E1, “Artificial riboswitch for controlling pre-mRNA splicing” (City of Hope, priority 2005, dated 2011).
# “Also recorded” adds a separate entry of the source.
# Assays:
# AdML-21AG pre-mRNA = assay: In vitro splicing of AdML-21AG pre-mRNA (no theophylline binding site); type: biochemical; conditions: up to maximum tested dose of theophylline
# Experimental: Nuclear extracts were prepared from HeLa cells (obtained from National Cell Culture), essentially as described by Dignam et al., (Dignam et al., 1983). To ensure that theophylline binds to its RNA target, a solution (5 μl) consisting of ^32P-labeled pre-mRNA (5-10 fmol, ˜10,000 cpm per reaction), indicated concentration of theophylline, 0.5 μl BC300 (20 mM HEPES, pH 8.0, 20% glycerol, 300 mM KCl, 0.2 mM EDTA) and 0.25 μl 160 mM MgCl2 were heated to 65° C. for 5 minutes, followed by 20 minutes incubation at room temperature. Next, 0.5 mM ATP, 20 mM creatine phosphate, 0.4 units of RNasin (Promega), 1.0 mM DTT, 6.25 μl HeLa nuclear extract, and water up to 12.5 μl (all concentrations are final) was added and incubation continued at 30° C. for the indicated time. Where indicated, theophylline was substituted by caffeine or water. […] Splicing intermediates and products were analyzed by electrophoresis in 13% denaturing polyacrylamide gels. The fractionated RNAs were visualized by PhosphorImager (Molecular Dynamics) and RNA signals were quantified by ImageQuant version 4.2 software (Molecular Dynamics) or ImageJ version 1.36 software (Rasband, W. S., ImageJ, U.S. National Institutes of Health, Bethesda, Md., http://rsb.info.nih.gov/ij, 1997-2006).
# [1] = tested on: pAdML-Theo29AG-EGFP reporter in HEK293 cells; assay: GFP splicing reporter in HEK293 cells (fluorescence microscopy, RT-PCR); type: cell-based; set-up: GFP expression of cells transfected with pAdML-Theo29AG-EGFP: dose or concentration left out as unconfirmed
# Text: Controlling gene expression in living cells through theophylline-RNA interaction. […] To determine if such an approach could also regulate gene expression in living cells, a splicing reporter was constructed in which the cDNA of AdML-Theo29AG pre-mRNA was inserted into the 5′ UTR of green fluorescence protein (GFP) cDNA. It was contemplated that theophylline mediated inhibition of AdML-Theo29AG splicing will prevent the export of GFP mRNA which will be mirrored by the lack of GFP expression. The reporter plasmid was constructed by standard molecular cloning approach. In brief, a PCR amplified DNA fragment containing the entire AdML-Theo29AG sequence was cloned into the EcoRI/Sal I digested expression vector (pEGFP-N1, Invitrogen). The resulting reporter plasmid, pAdML-Theo29AG-EGFP, contains the cDNA of AdML-Theo29AG pre-mRNA fused 5′ to the GFP coding sequence.
# To examine theophylline-mediated regulation of AdML-Theo29AG splicing, HEK293 cells were transfected with pAdML-Theo29AG-EGFP reporter using polyfectin following manufacturer's instructions (Qiagen). Cells were grown and maintained in a humidified atmosphere at 37° C. under 5% CO2 in Dulbecco's Modified Eagle Medium (Cellgro) supplemented with 10% fetal bovine serum and antibiotics (100 μg/ml streptomycin and 100 U/ml penicillin). For transfection, cells (3×10^4, per well) were seeded in a 24 well plate and incubated for 24 h (50-80% confluency) at which time pAdML-Theo29AG-EGFP or pEGFP-N1 was introduced. After 10 hours of incubation, cells were treated with buffer or theophylline ([…]) and incubation was continued up to 48 hours. The GFP expression was visualized with a fluorescence microscope and cells were photographed with color CCD camera (Olympus).
# An RT-PCR assay was performed to confirm that theophylline-mediated reduction of GFP expression is due to the inhibition of AdML-Theo29AG-EGFP splicing and not the result of mRNA degradation. Total RNA was isolated (from 3×10^4 cells) using trizol reagent. In a total volume of 20 μl, 5 μg of total RNA was reverse transcribed (RT) using vector specific reverse primer (GFPR, 5′-[…]-3′) according to manufacturer's instructions (Invitrogen Kit). Next, an aliquot (2 μl) of RT product was subjected to PCR amplification in a 50 μl reaction using 2.5 units of Taq polymerase, vector specific forward (GFPF, 5′-[…]-3′) and reverse primer (GFPR, 5′-[…]-3′). The amplified product was analyzed on a 2% agarose gel. […] Unlike the untreated control, which generated ˜250 bp fragment, theophylline treated cell yielded a PCR product corresponding to the size of unspliced RNA (˜350-bp).
# [2] = tested on: AdMLTheo54Mut, AdMLTheo57Mut, AdMLTheo510Mut, AdMLTheo513Mut pre-mRNAs; assay: In vitro splicing of AdML pre-mRNAs with 5′ ss embedded in the theophylline aptamer; type: biochemical
# Text: Similar experiments were run using pre-mRNA substrates wherein the 5′ ss rather than the 3′ ss was embedded within the theophylline binding aptamer. Plasmids encoding […] 5′ ss embedded AdML pre-mRNA derivatives (AdMLTheo54Mut, AdMLTheo57Mut, AdMLTheo510Mut, and AdMLTheo513Mut) were constructed using a standard PCR based approach (FIG. 32A). The length of the lower aptamer stem in these substrates varied from 4 to 13 nucleotides. To prevent the activation of a cryptic 5′ ss, the GU's (potential 5′ ss) upstream of the authentic 5′ ss were mutated to GC. […] The proximal to distal product ratio decreased in the presence of theophylline in the 10- and 13-nucleotide lower aptamer substrates (FIGS. 34A and B). Theophylline induced alternative splicing in a dose-dependent manner (FIGS. 35A and B).
# Nuclear extracts were prepared from HeLa cells (obtained from National Cell Culture), essentially as described by Dignam et al., (Dignam et al., 1983). […] Splicing intermediates and products were analyzed by electrophoresis in 13% denaturing polyacrylamide gels. The fractionated RNAs were visualized by PhosphorImager (Molecular Dynamics) and RNA signals were quantified by ImageQuant version 4.2 software (Molecular Dynamics) or ImageJ version 1.36 software (Rasband, W. S., ImageJ, U.S. National Institutes of Health, Bethesda, Md., http://rsb.info.nih.gov/ij, 1997-2006).
structure (smiles),measurement,setting,value
Cn1c(=O)c2[nH]cnc2n(C)c1=O [theophylline],effect on splicing of AdML-21AG pre-mRNA,AdML-21AG pre-mRNA,failed to elicit any effect; also recorded: exerts no effect; also recorded: virtually unaffected
same,splicing of AdML-Theo29AG-EGFP pre-mRNA by RT-PCR,[1]; HEK293,repressed the splicing
same,GFP expression of cells transfected with control plasmid pEGFP-N1,"[1]; HEK293, control plasmid",virtually no effect
same,GFP expression of cells transfected with pAdML-Theo29AG-EGFP,"[1]; HEK293, theophylline, up to 48 hours",dose dependent decrease in GFP expression
same,theophylline concentration sufficient to inhibit pre-mRNA splicing (FIG. 11),[1]; living cells,0.1 to 0.5 mM
same,proximal to distal product ratio,[2]; 10- and 13-nucleotide lower aptamer substrates,decreased
same,effect on splicing of 5′ ss embedded substrates,[2]; lower aptamer stem 4 to 13 nucleotides,inhibit splicing
